In ChEMBL document CHEMBL1201862, “PubChem BioAssay data set” (2004):
Each block holds one molecule with its values, some of them ahead of it. The source made the active and inactive calls.

Key:
[1] = target: T1, DNA repair protein RAD52 homolog (Homo sapiens, UniProt P43351); assay type: functional, biochemical
T1 sequence (P43351 whole entry): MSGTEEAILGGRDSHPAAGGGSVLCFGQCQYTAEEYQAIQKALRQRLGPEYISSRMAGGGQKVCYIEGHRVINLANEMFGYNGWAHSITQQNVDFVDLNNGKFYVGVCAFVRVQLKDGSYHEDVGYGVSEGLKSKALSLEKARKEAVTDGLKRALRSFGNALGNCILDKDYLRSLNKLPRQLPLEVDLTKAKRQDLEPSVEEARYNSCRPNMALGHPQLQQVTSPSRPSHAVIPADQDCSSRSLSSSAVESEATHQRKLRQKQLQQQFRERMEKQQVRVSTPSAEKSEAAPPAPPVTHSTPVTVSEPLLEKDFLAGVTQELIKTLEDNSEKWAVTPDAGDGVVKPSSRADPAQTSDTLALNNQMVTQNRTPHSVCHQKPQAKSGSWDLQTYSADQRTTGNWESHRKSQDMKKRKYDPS

Galanin receptor type 3 = target: T2, Galanin receptor type 3 (Homo sapiens, UniProt O60755); experiment: Fluorescence-based cell-based primary high throughput dose response assay to identify antagonists of the Galanin Receptor 3 (GalR3).; assay type: functional
T2 sequence (O60755 whole entry): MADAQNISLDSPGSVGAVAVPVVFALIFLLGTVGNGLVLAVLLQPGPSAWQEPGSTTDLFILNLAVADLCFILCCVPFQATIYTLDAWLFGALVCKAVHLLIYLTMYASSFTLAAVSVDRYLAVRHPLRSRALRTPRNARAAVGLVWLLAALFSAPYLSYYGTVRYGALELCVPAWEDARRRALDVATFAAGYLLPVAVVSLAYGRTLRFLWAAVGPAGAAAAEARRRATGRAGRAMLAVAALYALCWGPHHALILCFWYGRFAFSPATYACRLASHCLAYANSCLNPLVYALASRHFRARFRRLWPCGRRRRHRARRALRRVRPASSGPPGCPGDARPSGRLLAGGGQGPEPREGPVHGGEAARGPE

cells = assay type: functional, cell-based; settings: HEK-CNG
[2] = target: 26S proteasome non-ATPase regulatory subunit 14 (Homo sapiens, UniProt O00487); experiment: inhibition of proteasome subunit RPN11 – biochemical, fluorescence polarization, uHTS hits, confirmation (AID 602368); assay type: functional
26S proteasome non-ATPase regulatory subunit 14, sequence (O00487 whole entry): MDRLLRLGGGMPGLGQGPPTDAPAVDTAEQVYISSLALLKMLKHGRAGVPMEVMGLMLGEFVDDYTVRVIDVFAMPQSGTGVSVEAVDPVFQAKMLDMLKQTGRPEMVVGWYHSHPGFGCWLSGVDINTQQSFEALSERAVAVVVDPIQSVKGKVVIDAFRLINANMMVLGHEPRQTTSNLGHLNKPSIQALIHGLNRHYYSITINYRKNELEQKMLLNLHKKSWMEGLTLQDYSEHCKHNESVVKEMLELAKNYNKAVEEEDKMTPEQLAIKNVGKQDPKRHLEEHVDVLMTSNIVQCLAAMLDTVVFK

[3] = target: 72 kDa type IV collagenase (Homo sapiens, UniProt P08253); experiment: Dose Response validation of uHTS RPN11 inhibitor hits using a MMP-2 Fluorescence assay.; assay type: functional
72 kDa type IV collagenase, sequence (P08253 whole entry): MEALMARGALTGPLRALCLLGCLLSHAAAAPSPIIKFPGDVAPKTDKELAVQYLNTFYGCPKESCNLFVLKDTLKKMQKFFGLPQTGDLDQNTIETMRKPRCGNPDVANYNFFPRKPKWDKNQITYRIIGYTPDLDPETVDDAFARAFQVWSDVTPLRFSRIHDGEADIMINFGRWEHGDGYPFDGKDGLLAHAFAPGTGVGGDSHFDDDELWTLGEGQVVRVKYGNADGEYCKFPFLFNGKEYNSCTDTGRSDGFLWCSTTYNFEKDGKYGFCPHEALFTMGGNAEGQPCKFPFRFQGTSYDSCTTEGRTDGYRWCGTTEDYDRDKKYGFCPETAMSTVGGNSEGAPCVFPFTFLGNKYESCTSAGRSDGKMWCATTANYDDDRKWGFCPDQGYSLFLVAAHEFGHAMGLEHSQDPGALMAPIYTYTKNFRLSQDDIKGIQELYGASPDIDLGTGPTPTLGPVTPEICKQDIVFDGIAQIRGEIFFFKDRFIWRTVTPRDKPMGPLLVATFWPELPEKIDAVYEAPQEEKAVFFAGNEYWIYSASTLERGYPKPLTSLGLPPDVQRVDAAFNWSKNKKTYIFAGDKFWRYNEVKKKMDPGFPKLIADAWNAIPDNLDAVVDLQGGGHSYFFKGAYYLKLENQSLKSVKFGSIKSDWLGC

Prothrombin = Prothrombin (Bos taurus, UniProt P00735); experiment: thrombin protease inhibitors – biochemical, fluorescence polarization, uHTS hits, dose response (AID 602369); assay type: functional
[4] = target: T3, Rac GTPase-activating protein 1 (Homo sapiens, UniProt Q9H0H5); experiment: blockers of MgcRacGAP-driven Rac1 GTP hydrolysis – biochemical, ADP Hunter fluorescence, primary and confirmatory, confirmation (AID 624330); assay type: functional
T3 sequence (Q9H0H5 whole entry): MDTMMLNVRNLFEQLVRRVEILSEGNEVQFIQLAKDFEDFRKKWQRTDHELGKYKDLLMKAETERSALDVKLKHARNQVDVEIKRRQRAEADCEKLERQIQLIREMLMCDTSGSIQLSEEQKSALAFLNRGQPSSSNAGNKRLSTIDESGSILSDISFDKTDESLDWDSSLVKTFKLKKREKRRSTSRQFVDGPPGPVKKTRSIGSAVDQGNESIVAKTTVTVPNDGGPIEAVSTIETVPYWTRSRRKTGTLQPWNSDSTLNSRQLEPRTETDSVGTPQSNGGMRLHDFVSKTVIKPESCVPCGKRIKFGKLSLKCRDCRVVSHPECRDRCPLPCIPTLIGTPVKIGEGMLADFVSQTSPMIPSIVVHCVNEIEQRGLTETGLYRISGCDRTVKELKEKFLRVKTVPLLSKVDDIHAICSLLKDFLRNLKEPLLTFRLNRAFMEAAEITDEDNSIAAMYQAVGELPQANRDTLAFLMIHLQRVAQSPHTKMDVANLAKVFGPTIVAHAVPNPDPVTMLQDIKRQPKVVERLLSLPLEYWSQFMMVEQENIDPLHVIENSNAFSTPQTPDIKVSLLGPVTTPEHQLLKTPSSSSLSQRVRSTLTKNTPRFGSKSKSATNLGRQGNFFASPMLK

[5] = NIH-3T3 fibroblast cytotoxicity, dose response, cytotoxicity control, cell-based, fluorescence, Alamar Blue, secondary assay (AID 2327); assay type: functional;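 further: NIH-3T3 mouse fibroblasts cultured with fluconazole at 8 µg/mL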
[6] = fluconazole-exposed Candida albicans growth modulators – fluorescence, retest, confirmation (AID 2467); assay type: functional, cell-based
[7] = target: T4, Serine/threonine-protein phosphatase (Candida dubliniensis (strain CD36 / CBS 7987 / NCPF 3949 / NRRLY-17841) (Yeast), UniProt B9W6M3); experiment: blockers of CaCl2-induced CDRE-lacZ signaling – S. cerevisiae, luminescence, secondary, dose response (AID 2388); assay type: functional, cell-based;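 further: yeast reporter cells carrying a calcineurin-responsive lacZ construct stimulated with calcium chloride; luminescent beta-galactosidase reporter signal in whole cells rather than isolated phosphatase activity; potency for inhibition where a drop in reporter signal means calcineurin blockade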
T4 sequence (B9W6M3 whole entry): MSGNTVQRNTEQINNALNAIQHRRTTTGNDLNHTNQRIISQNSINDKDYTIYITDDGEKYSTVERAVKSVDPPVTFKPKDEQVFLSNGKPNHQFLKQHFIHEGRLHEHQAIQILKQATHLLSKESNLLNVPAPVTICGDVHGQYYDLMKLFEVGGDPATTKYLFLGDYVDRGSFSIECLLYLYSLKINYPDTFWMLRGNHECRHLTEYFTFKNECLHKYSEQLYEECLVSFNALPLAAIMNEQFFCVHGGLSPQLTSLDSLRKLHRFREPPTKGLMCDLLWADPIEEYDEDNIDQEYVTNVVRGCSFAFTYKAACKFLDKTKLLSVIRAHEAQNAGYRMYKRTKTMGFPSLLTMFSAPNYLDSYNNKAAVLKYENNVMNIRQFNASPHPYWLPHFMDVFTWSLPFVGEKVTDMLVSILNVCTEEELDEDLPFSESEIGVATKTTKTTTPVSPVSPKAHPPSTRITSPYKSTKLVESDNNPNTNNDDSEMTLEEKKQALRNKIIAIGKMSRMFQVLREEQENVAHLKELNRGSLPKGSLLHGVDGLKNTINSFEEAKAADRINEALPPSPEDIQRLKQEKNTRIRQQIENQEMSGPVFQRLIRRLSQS

[8] = target: ATP-dependent molecular chaperone HSP82 (Candida albicans (strain WO-1) (Yeast), UniProt C4YTQ8); experiment: steroid-induced GRE reporter decrease in yeast – S. cerevisiae, luminescence, Hsp90 inhibitor project, dose response (AID 2400); assay type: functional, cell-based;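 further: beta-galactosidase luminescence from glucocorticoid response element reporter as proxy for Hsp90 function; inhibitor potency where signal loss means Hsp90 inhibition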
ATP-dependent molecular chaperone HSP82, sequence (C4YTQ8 whole entry): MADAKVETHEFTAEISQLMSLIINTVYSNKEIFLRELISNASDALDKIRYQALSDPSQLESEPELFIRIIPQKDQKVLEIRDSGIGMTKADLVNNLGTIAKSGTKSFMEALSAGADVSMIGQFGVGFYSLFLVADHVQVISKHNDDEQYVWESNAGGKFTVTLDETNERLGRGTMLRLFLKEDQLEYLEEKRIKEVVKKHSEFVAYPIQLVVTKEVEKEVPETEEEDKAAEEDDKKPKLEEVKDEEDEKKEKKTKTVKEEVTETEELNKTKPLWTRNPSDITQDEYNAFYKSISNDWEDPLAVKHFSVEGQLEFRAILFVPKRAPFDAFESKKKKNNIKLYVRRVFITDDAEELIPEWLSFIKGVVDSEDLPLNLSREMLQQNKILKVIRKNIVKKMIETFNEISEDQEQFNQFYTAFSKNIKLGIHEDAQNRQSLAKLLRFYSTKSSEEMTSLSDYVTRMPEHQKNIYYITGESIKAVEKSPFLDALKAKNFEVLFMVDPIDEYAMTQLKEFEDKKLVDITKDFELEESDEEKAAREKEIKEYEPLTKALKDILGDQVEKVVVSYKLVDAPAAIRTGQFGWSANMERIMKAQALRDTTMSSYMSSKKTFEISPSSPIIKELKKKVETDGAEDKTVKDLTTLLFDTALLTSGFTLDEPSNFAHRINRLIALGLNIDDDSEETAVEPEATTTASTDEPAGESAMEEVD

[9] = target: T5, Corticotropin-releasing factor receptor 2/Corticotropin-releasing factor-binding protein (Homo sapiens, UniProt P24387+Q13324); experiment: activators of CRF receptor 2 with binding protein – uHTS hits, confirmation (AID 602473); assay type: functional; settings: read-out: EC50_Mean
T5 sequence (Q13324 whole entry): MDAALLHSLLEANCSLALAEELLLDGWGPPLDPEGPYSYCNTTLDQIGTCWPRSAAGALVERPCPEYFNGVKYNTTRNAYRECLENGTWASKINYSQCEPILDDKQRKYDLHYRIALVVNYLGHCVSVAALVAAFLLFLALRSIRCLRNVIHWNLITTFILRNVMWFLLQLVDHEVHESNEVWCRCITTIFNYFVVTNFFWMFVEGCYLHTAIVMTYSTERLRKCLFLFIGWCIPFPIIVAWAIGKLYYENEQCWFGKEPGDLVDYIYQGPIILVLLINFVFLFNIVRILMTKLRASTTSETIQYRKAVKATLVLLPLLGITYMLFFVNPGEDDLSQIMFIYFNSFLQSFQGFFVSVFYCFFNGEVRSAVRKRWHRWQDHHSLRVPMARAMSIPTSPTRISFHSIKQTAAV
T5 sequence (P24387 whole entry): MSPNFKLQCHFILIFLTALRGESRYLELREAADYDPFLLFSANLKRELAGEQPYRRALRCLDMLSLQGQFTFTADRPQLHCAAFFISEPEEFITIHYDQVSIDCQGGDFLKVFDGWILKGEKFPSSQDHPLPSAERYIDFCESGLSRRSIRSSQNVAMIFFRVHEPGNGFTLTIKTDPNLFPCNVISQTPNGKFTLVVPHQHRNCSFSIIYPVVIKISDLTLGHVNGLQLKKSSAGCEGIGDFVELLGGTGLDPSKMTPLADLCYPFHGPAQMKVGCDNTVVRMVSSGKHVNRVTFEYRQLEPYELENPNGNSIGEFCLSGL

[10] = Luminescence Cell-Based Dose Retest to Confirm Inhibitors of Cancer Stem Cells. [Related pubchem assays (depositor defined):AID2717, AID2721]; assay type: functional; settings: Homo sapiens
[11] = target: T6, Heat shock factor protein 1 (Mus musculus, UniProt P38532); experiment: enhancement of HSF1-driven luciferase signal – cell-based, NIH3T3, luminescence, dose retest, confirmation (AID 435004); assay type: functional;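 further: stress induced by proteasome inhibitor MG132 added 30 min after compound; luciferase reporter driven by HSF1 response element in NIH3T3 cells; actives raise luminescence as potentiators of the MG132 stress response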
T6 sequence (P38532 whole entry): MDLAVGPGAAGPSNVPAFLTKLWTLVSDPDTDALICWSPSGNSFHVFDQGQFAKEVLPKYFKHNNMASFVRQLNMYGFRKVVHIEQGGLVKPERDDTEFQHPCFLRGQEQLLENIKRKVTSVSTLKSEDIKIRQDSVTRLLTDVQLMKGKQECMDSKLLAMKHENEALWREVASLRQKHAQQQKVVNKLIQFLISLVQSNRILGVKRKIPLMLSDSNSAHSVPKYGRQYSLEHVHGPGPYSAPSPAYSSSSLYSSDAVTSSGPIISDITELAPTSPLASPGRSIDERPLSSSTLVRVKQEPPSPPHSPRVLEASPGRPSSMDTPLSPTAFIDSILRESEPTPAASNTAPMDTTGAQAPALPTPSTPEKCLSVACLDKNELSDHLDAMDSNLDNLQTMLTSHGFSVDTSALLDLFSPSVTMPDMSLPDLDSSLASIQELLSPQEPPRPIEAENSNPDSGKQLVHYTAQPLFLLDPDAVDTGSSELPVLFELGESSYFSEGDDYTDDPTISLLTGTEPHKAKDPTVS

[12] = target: T7, Small ubiquitin-related modifier 1 (Homo sapiens, UniProt P63165); experiment: SUMO1 protein interaction blockers, potency – biochemical, fluorescence polarization, uHTS hits, dose response (AID 624382); assay type: functional; settings: read-out: IC50_Mean
T7 sequence (P63165 whole entry): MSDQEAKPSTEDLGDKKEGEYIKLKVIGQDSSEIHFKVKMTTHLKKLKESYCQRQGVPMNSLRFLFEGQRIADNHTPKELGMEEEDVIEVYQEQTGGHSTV

[13] = target: T7, Small ubiquitin-related modifier 1; experiment: SUMO1 protein-protein binding blockers, potency – biochemical, FRET, dose response (AID 624383); assay type: functional; settings: read-out: IC50_Mean

- AC50 [1]: 10.3 µM (active)
Structure (SMILES): c1cc(OCCCN2CCCCC2)ccc1CN1CCCCC1 [JNJ-5207852]

Structure (SMILES): O=C(Nc1nc(-c2ccc(Cl)cc2Cl)cs1)c1ccc(OCC2CCCO2)cc1 (stereo unspecified)
- IC50 (Galanin receptor type 3): 1.07 µM (active)
- EC50 (cells): > 29.9 µM (inactive)

- IC50 [2]: 31.2 µM (active)
- IC50 [3]: > 100 µM (inactive)
- IC50 (Prothrombin): 62.7 µM (active)
- IC50 [4]: 18.4 µM (active)
Structure (SMILES): CN1C=CC(=CC=C2C=CC(=O)C=C2)C=C1

Structure (SMILES): CCc1nnc(NC(=O)CSc2nc(SC)ns2)s1
- EC50 [5]: > 160 µM (inactive)
- EC50 [6]: 2.88 µM (active)
- EC50 [7]: > 180 µM (inactive)
- EC50 [8]: > 160 µM (inactive)
- EC50 [9]: > 53 µM (inactive)

Structure (SMILES): Cn1cc([N+](=O)[O-])c(C(=O)Nc2ccc(-c3nc4ccccc4o3)cc2)n1
- AC50 [10]: 2.45 µM (active)
- EC50 [11]: 6.61 µM (active)
- IC50 [12]: > 66.6 µM (inactive)
- IC50 [13]: 17.3 µM (active)
